Test results from patent US9017962B2, “Intracellular reporters” (The Johns Hopkins University, priority 2007, dated 2015).
Entries after “also recorded” stand apart in the source; their conditions may differ.

How the values were obtained:
Type in all cases: cell-based
Akt [1] = assay: AktAR emission ratio imaging in NIH3T3 cells
Description: (§1) NIH 3T3 cells were used in all experiments. The cells were plated on sterilized glass coverslips in 35-mm dishes and were grown to 40% confluency in Dulbecco's modified Eagle's medium (10% FBS) at 37° C. with 5% CO2. Cells were transfected with Lipofectamine (Invitrogen) then serum-starved for 24 h before imaging.
(§2) NIH 3T3 cells were washed once with Hanks' balanced salt solution (HBSS) buffer and imaged in the dark at room temperature. Images were acquired on a Zeiss Axiovert 200M microscope with a cooled charge-coupled device camera, as described in Ananthanarayanan, 2005. Dual emission ratio imaging used a 420DF20 excitation filter, a 450DRLP dichroic mirror, and two emission filters. For CFP and YFP, 475DF40 and 535DF25 were used respectively. Exposure time was 50-500 ms. Images were taken every 20-30 s.
(§3) Imaging data were analyzed with Metafluor 6.2 software (Universal Imaging, Downingtown, Pa.). Fluorescence images were background-corrected by deducting the background (regions with no cells) from the emission intensities of CFP or YFP. Traces before addition of drugs were normalized to 1.

Akt [2] = assay: Mito-AktAR imaging, Akt activity at the mitochondrial outer membrane, NIH3T3 cells
From the text: (§4) All of the targeting tags were subcloned to AktAR from targeted A Kinase Activity Reporter (AKAR) (Allen & Zhang, Biochem Biophys Res Commun. 2006, 22; 348(2):716-21). Two plasma membrane targeted AktAR, PM(Lyn)-AktAR and AktAR-PM(CAAX), were generated by addition of the N-terminal portion of Lyn kinase gene at the 5′ end and CAAX tag at the 3′ end of AktAR, respectively. Nuclear localization was achieved by a C-terminal nuclear localization signal (NLS) tag (PKKKRKVEDA, SEQ ID NO:31). The targeting motif from DAKAP1a was used to target AktAR to the outer membrane of mitochondria.
as §1, §2, §3
It has been known that Akt has several mitochondrial substrates. […] In summary, no basal, PDGF-stimulated, or phosphatase-suppressed endogenous Akt was detected at this location. It is possible that the extremely low activity of Akt at the mitochondrial outer membrane cannot be detected by Mito-AktAR.

calcineurin [3] = assay: Calcineurin activity reporter emission ratio imaging in HeLa cells; conditions: 1 μM, 10 minute preincubation
Description: FIG. 22. Characterization of calcineurin activity reporter 1 (CaNAR1). Graph of representative response of CaNAR1-expressing HeLa cells following ionomycin treatment. Ionomycin (1 μM) and additional CaCl2 (5 mM) were added to the imaging solution at the indicated times (arrows). The standard deviation for each time point is shown (n=2).
(§5) FIG. 23A-B. CaNAR1 is dephosphorylated in a calcineurin-dependent manner. FIG. 23A, graph of average response of CaNAR1 in the presence (black squares) or absence (gray diamonds) of cyclosporin A (CsA, 1-μM, 10 minute preincubation). Ionomycin and CaCl2 treatments are as described for FIG. 22. The standard error at each time point is shown (n=4 and 6 in the presence or absence of CsA, respectively). FIG. 23B, the electrophoretic mobility of CaNAR1 isolated from HeLa cell lysates was determined at various times after ionomycin addition using standard western blotting techniques using a rabbit anti-GFP antibody (diluted 1:4000 in blocking buffer) was used to probe for CaNAR1.
To generate a FRET-based reporter capable of monitoring calcineurin activity in live cells, we initially chose to flank NFAT1(1-415) with ECFP and cpV(L194) at the N- and C-termini, respectively. […] The emission ratio of yellow over cyan was then measured over time in HeLa cells expressing each construct, and their signals compared. […]

calcineurin [4] = assay: Electrophoretic mobility of CaNAR1 from HeLa cell lysates (western blot); conditions: preincubation prior to ionomycin treatment
Description: as §5
Next, to correlate the FRET change with dephosphorylation of CaNAR1, we took advantage of the fact that the electrophoretic mobility of NFAT1 is strongly influenced by its phosphorylation state. […] Though its calculated molecular weight is 85 kDa, CaNAR1 migrated almost exclusively as an approximately 125 kDa species in uninduced cell lysates, consistent with hyperphosphorylation of its substrate region. […] Thus, the observed FRET change is correlated with dephosphorylation of the reporter by calcineurin, providing a real-time readout for calcineurin activity.

p38 MAPK = assay: JNK reporter specificity: inhibition of p38 MAPK in HeLa cells; conditions: 25 μM, 45 min pre-treatment and continual presence
Description: FIG. 16A-B. Characterization of a MAPK reporter. FIG. 16A, Co-transfection of reporter with mCherry-JIPδ. To inhibit JNK activity, HeLa cells were co-transfected with the reporter and mCherry-JIPδ and imaged 24 h later in HBSS containing 10% FBS on stage warmer heated to 37° C. […] FIG. 16B, Response of reporter to inhibition of p38 MAPK.
To test the specificity of the reporter, HeLa cells were co-transfected with the reporter and a fusion construct of mCherry with the docking (δ) domain from JIP1.

Akt [5] = assay: Plasma membrane targeted AktAR imaging in NIH3T3 cells; conditions: 5 mM pre-incubation for 30 min
From the text: as §4, §1
NIH 3T3 cells were washed once with Hanks' balanced salt solution (HBSS) buffer and imaged in the dark at room temperature. Images were acquired on a Zeiss Axiovert 200M microscope with a cooled charge-coupled device camera, as described in Ananthanarayanan, 2005. […]
Imaging data were analyzed with Metafluor 6.2 software (Universal Imaging, Downingtown, Pa.). Fluorescence images were background-corrected by deducting the background (regions with no cells) from the emission intensities of CFP or YFP. […]

For `COC[C@@H]([C@H](O)[C@H](O)C(=O)NCC[C@H](C)c1nc(/C=C/C[C@@H]2O[C@]3(C[C@@H](O)[C@@H]2C)O[C@H]([C@H](C[C@H](O)[C@H](C)[C@H](O)[C@H](C)/C=C(C)/C(C)=C/C=C/C(C)=C\C#N)OC)[C@H](OP(=O)(O)O)C3(C)C)co1)N(C)C` [Calyculin A], the “effect on AktAR response” value (Akt [1]; 5 nM after PDGF 50 ng/ml, serum-starved NIH3T3 cells) was “substantially increased the response of AktAR”, the “effect on Mito-AktAR response” value (Akt [2]; endogenous Akt, Calyculin A 5 nM or LY294002 20 μM) was “did not recover any Akt activity” and the “effect on Mito-AktAR response” value (Akt [2]; overexpressed Mito-mCherry-Akt1, Calyculin A 5 nM or LY294002) was “failed to activate mitochondrial outer membrane-bound Akt”. For the same molecule, the “effect on Mito-AktAR response” value (Akt [2]; overexpressed mCherry-Akt1, after PDGF, Calyculin A 5 nM or LY294002 20 μM) was “further increased the response”.

In the case of Cyclosporin A [CsA], the “effect on FRET change of CaNAR1 induced by ionomycin” value (calcineurin [3]) is reported as “completely abolished the FRET change”, the “effect on FRET change of CaNAR1 induced by ionomycin” value (calcineurin [3]; listed as cyclosporine A) is reported as “abolished” and the “effect on electrophoretic mobility of CaNAR1 after ionomycin” value (calcineurin [4]) is reported as “no change in the electrophoretic mobility”.

With `CCCCCCCCCCCCCCCCCCOC[C@H](COP(=O)(O)O[C@H]1[C@H](O)[C@@H](O)[C@H](O)C[C@H]1OC)OC` [SH-5] the “AktAR response to PDGF after pre-incubation with inhibitor” value (Akt [1]; 6 μM pre-incubation in HBSS, PDGF 50 ng/ml) was “did not show substantial response”.

With `C[S+]([O-])c1ccc(-c2nc(-c3ccncc3)c(-c3ccc(F)cc3)[nH]2)cc1` (stereo not shown) [SB203580] the “effect on response of the reporter to anisomycin” value (p38 MAPK) was “does not affect the response of the reporter to anisomycin”.

In the case of methylated β-cyclodextrin [MβCD], the “effect on PM(Lyn)-AktAR response to PDGF (lipid rafts)” value (Akt [5]) is reported as “delayed response and reduced dynamic range; also recorded: diminishes Akt activity at the plasma membrane lipid rafts”.
